Results on three compounds are retold here after patent publication US8906832B2, “Quantitative analysis of carbohydrate-protein interactions using glycan microarrays: determination of surface and solution dissociation constants” (Academia Sinica, priority 2008, dated 2014).

Like-named read-outs stand apart in the source and are kept apart here.

The target in experiment [1] is T1, Con A (Canavalia ensiformis, UniProt P02866).
T1 construct: purchased Sigma
Nature of the experiment: Competitive binding assay on glycan microarray (solution KD / Ki).
Text: The solution equilibrium dissociation constant (KD) for carbohydrate-lectin interactions can be determined using microarrays in a competitive assay. […] In a competitive binding experiment, carbohydrates in solution compete with immobilized carbohydrate ligands for the binding sites on the lectin, establishing a coupled equilibrium between the binding of protein to the immobilized species and to the species present in solution. Using array imaging signals, the unbound protein concentration [P] can be obtained via Langmuir isotherms (eq 1). Once the concentration of P has been measured, it is possible to determine the KD using eq 2, which is derived from the multivalent Scatchard formula (see the Experimental Section for the derivation of eq 2)
where [Lo] is ligand (carbohydrate) concentration applied to the system, and KD is the solution equilibrium dissociation constant. […] Binding curves, representing different concentrations of competitors were obtained as the function of FITC-Con A concentrations and fluorescence intensities from the Man8 surface (FIG. 4a). The data was analyzed according to eq 2, to afford apparent KD values, which were then replotted against competitor concentration to afford the solution KD values (FIG. 4b). […]
ArrayVision 8.0 (Applied Precision) was used for the fluorescence analysis and extraction of data. […]

Experiment [2] deals with T1, Con A. The conditions noted are these: obtained by SPR; cited from earlier work. On the technique in general: SPR reads the build-up and loss of mass on a sensor chip optically.
The target in experiment [3] is T1, Con A. Conditions: obtained by microcalorimetry; cited from earlier work.
Another experiment deals with T2, lectins or antibodies (Lens culinaris, UniProt P02870).
T2 construct: purchased Sigma
T2 sequence (P02870 31-210 limits assumed): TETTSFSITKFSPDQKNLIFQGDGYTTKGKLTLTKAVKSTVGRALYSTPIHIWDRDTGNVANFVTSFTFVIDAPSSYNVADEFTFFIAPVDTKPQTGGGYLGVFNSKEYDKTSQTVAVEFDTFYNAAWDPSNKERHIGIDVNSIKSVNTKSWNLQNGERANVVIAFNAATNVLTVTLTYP
T2 sequence (P02870 218-269 limits assumed): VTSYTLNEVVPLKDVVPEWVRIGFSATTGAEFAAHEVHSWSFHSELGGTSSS
Nature of the experiment: Direct binding on glycan microarray, lectin or antibody not named. Conditions: binding protein not given. From the text:
Prior studies of carbohydrate-protein interactions have used a threshold-based, one-step qualitative analysis i.e. interaction or non-interaction. The threshold varies from one carbohydrate to another and is based on how well the carbohydrate behaves in the assay. Even when closely related glycans are studied under ideal conditions, they vary with respect to the surface density of active carbohydrates. Since the intensity of a spot depends both on KD,surf (which results from binding affinity), and Fmax (which results from surface active carbohydrate density and protein binding), the information obtained by probing an array with a single concentration of analytes may not be accurate.

In the case of `COC1OC(CO)C(O)C(O)C1O` (stereo not drawn) [a-MeMan, α-methyl mannose], the “relative affinity KD (a-MeGlc)/KD (a-MeMan)” value on Con A [1] (inhibitors in solution, Con A) was determined as 4.3. Moreover, the figures for the Ki at Con A [2] and at Con A [3] were 92 µM and 120 µM, respectively.

As to Man9, on lectins or antibodies, the “Fmax (maximal fluorescence intensity)” value is given as 25780. Moreover, at lectins or antibodies (read-out: KD (dissociation constant, surface)), the Kd (usually the equilibrium constant for the complex coming apart) was determined as 0.335 µM. For the same compound, the “fold stronger than Man1 in binding to Con A” value at Con A [1] (from solution KD values) is “more than 10^3 fold”.

As to `COC1OC(CO)C(O)C(O)C1O` (stereo not drawn) [a-MeGlc, α-methyl glucose], the Ki – broadly, the equilibrium dissociation constant of an inhibitor or competing ligand from its target – at Con A [3] is 520 µM.
